The results in this text go back to US10285983B2, “3-(1H-pyrrolo[2,3-B]pyridin-2-yl)-1H-pyrazolo[3,4-B] pyridines and therapeutic uses thereof” (Samumed, LLC, priority 2015, dated 2019).

For orientation: inhibition means the percentage by which the read-out fell short of the control.

What all share (type): cell-based
Experiment [1] has as its system Wnt activity (Sp5-Luc reporter, SW480 colon carcinoma cells). Description: Wnt activity screening assay, Sp5-Luc reporter gene in SW480 cells. The note with it: Homo sapiens; for inhibition at 10 µM: given for EC50 >10 μM, read-out: percent inhibition at 10 μM; for EC50: overnight incubation. Summed up:
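SW480 colon carcinoma cells stably expressing firefly luciferase under a human Sp5 promoter (eight TCF/LEF sites), plated in 1% FBS medium. 10-point 1:3 dilutions from 10 μM, 0.1% DMSO final, overnight at 37 °C; luminescence normalized to DMSO, four-parameter fit for EC50, % inhibition at 10 μM if EC50 >10 μM.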
For orientation: Reporter assays use an easily measured gene product as a stand-in for the process of interest.

Experiment [2] relates to SW480 colon cancer cells. Description: Cell viability assay (CellTiter-Blue). The conditions noted are these: Homo sapiens, 96 h, four days; for inhibition at 10 µM: given for EC50 >10 μM, read-out: percent inhibition at 10 μM. An outline of the steps:
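Resazurin reduction (Ex 560/Em 590 nm, ~3 h reagent incubation) served as the viability read-out after SW480 cells were treated for four days at 37 °C. Doses ran from 10 μM down to 0.0045 μM in eight 1:3 steps. Curves fitted non-linearly for EC50, else % inhibition at 10 μM reported.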
A general note: The colour change of resazurin is a common sign of viable cells or microbes.

Experiment [3] relates to primary human mesenchymal stem cells (hMSCs). Description: Chondrogenesis induction in hMSCs (nodule count, Rhodamine B/Nile Red). The conditions noted are these: 144 h, 6 days; for EC50: concentration required to induce 50% levels of chondrogenesis vs TGF-β3, read-out: Conc (nM) of 50% TGF-β3 activity; for Emax: relative to TGF-β3 (10 ng/mL) positive control, read-out: Max. Activity as % TGF-β3 activity. How it is done: Representative compounds were screened using primary human mesenchymal stem cells (hMSCs) to determine their ability to induce chondrogenesis (process by which cartilage is developed).
Primary human mesenchymal stem cells (hMSCs) were purchased from Lonza (Walkersville, Md.) and expanded in Mesenchymal Stem Cell Growth Media (Lonza). Cells between passage 3 and 6 were used for the experiments.
Each compound was dissolved in DMSO as a 10 mM stock and used to prepare compound source plates. Serial dilution (1:3, 6-point dose-response curves from 2700 nM to 10 nM) and compound transfer was performed using the ECHO 550 (Labcyte, Sunnyvale, Calif.) into 96-well clear bottom assay plates (Greiner Bio-One) with appropriate DMSO backfill for a final DMSO concentration of 0.03%. hMSCs were plated at 20,000 cells/well in 250 μL/well Incomplete Chondrogenic Induction Medium (Lonza; DMEM, dexamethasone, ascorbate, insulin-transferrin-selenium [ITS supplement], gentamycin-amphotericin [GA-1000], sodium pyruvate, proline and L-glutamine). TGF-β3 (10 ng/mL) was used as a positive control for differentiation while negative control wells were treated with 75 nL DMSO for normalization and calculating EC50 values. Cells were incubated at 37° C. and 5% CO2 for 6 days. To image chondrogenic nodules, the cells were fixed using 4% formaldehyde (Electron Microscopy Sciences), and stained with 2 μg/mL Rhodamine B (Sigma-Aldrich) and 20 μM Nile Red (Sigma-Aldrich) [Johnson K., et. al, A Stem Cell-Based Approach to Cartilage Repair, Science, (2012), 336(6082), 717-721]. The nodules imaged (4 images per well at 4× magnification) by excitation at 531 nm and emission at 625 nm and quantified using the CellInsight CX5 (Thermo Scientific). Number of nodules in each well was normalized to the average of 3 DMSO treated wells on the same plate using Excel (Microsoft Inc.). The normalized averages (fold change over DMSO) of 3 replicate wells for each compound concentration were calculated. Due to solubility limitations of some of the compounds, curve fitting was incomplete leading to inaccurate EC50 determinations.
Using TGF-β3 as a positive control, the concentration of representative compounds required to induce 50% levels of chondrogenesis is reported. In addition, the maximum activity of each compound and the respective dose that each compound reached maximum chondrogenesis activity is reported.

For the molecule `CN(C)Cc1cncc(-c2cnc3[nH]nc(-c4cc5c(-c6cccc(F)c6)ccnc5[nH]4)c3c2)c1` [Compound 13, 1-(5-(3-(4-(3-Fluorophenyl)-1H-pyrrolo[2,3-b]pyridin-2-yl)-1H-pyrazolo [3,4-b]pyridin-5-yl)pyridin-3-yl)-N,N-dimethylmethanamine], the inhibition at 10 µM in experiment [1] was determined as 22.6%; in experiment [2], 11.6%. Besides, the EC50 is > 10 µM in experiment [1], > 10 µM in experiment [2] and 100 nM in experiment [3]. Also, the Emax in experiment [3] is 102%.
Consider `Cc1ccncc1-c1cnc2[nH]nc(-c3cc4c(-c5ccc(F)cc5)ccnc4[nH]3)c2c1` [Compound 33, 3-(4-(4-Fluorophenyl)-1H-pyrrolo[2,3-b]pyridin-2-yl)-5-(4-methylpyridin-3-yl)-1H-pyrazolo[3,4-b]pyridine], for which, in experiment [1], the inhibition at 10 µM is 2.7% and the EC50 is > 10 µM. In experiment [2], the EC50 was > 10 µM and the inhibition at 10 µM came out at 25%. In experiment [3], the EC50 is 900 nM and the Emax amounted to 108%.
For the molecule `Fc1ccc(-c2ccnc3[nH]c(-c4n[nH]c5ncc(-c6cncc(CN7CCCC7)c6)cc45)cc23)cc1` [Compound 42, 3-(4-(4-Fluorophenyl)-1H-pyrrolo[2,3-b]pyridin-2-yl)-5-(5-(pyrrolidin-1-ylmethyl)pyridin-3-yl)-1H-pyrazolo[3,4-b]pyridine], in experiment [1], the inhibition at 10 µM was 26% and the EC50 was > 10 µM. In addition, in experiment [2], the EC50 is > 10 µM and the inhibition at 10 µM was determined as 24.8%. The Emax in experiment [3] worked out at 25%.
On to `Nc1cncc(-c2cnc3[nH]nc(-c4cc5c(-c6ccccc6F)ccnc5[nH]4)c3c2)c1` [Compound 59, 5-(3-(4-(2-Fluorophenyl)-1H-pyrrolo[2,3-b]pyridin-2-yl)-1H-pyrazolo[3,4-b]pyridin-5-yl)pyridin-3-amine], for which, in experiment [1], the inhibition at 10 µM was 48.3% and the EC50 is > 10 µM. Moreover, in experiment [2], the EC50 is > 10 µM and the inhibition at 10 µM amounted to 20.1%. Further, in experiment [3], the Emax was 28%.
Take `CCNCc1cncc(-c2cnc3[nH]nc(-c4cc5c(-c6ccccc6F)ccnc5[nH]4)c3c2)c1` [Compound 62, N-((5-(3-(4-(2-Fluorophenyl)-1H-pyrrolo[2,3-b]pyridin-2-yl)-1H-pyrazolo [3,4-b]pyridin-5-yl)pyridin-3-yl)methyl)ethanamine]: the inhibition at 10 µM in experiment [1] amounted to 0%; in experiment [2] it was 38.2%. The EC50 in experiment [1] is > 10 µM; in experiment [2], > 10 µM; in experiment [3], 100 nM. For the same molecule, in experiment [3], the Emax was 55%.
As for `CN(C)c1cncc(-c2cnc3[nH]nc(-c4cc5c(-c6ccccc6F)ccnc5[nH]4)c3c2)c1` [Compound 63, 5-(3-(4-(2-Fluorophenyl)-1H-pyrrolo[2,3-b]pyridin-2-yl)-1H-pyrazolo[3,4-b]pyridin-5-yl)-N,N-dimethylpyridin-3-amine], in experiment [1], the inhibition at 10 µM came to 4% and the EC50 is > 10 µM. Moreover, in experiment [2], the EC50 is > 10 µM and the inhibition at 10 µM was 16.1%. Moreover, in experiment [3], the Emax was 35%.
As to `CC(C)Nc1cncc(-c2cnc3[nH]nc(-c4cc5c(-c6ccccc6F)ccnc5[nH]4)c3c2)c1` [Compound 68, 5-(3-(4-(2-Fluorophenyl)-1H-pyrrolo[2,3-b]pyridin-2-yl)-1H-pyrazolo[3,4-b]pyridin-5-yl)-N-isopropylpyridin-3-amine], in experiment [1], the inhibition at 10 µM turned out to be 4.6% and the EC50 is > 10 µM. Besides, in experiment [2], the EC50 was > 10 µM and the inhibition at 10 µM came out at 1%. For the same molecule, in experiment [3], the EC50 was found to be 10 nM and the Emax was 82%.
With `CCCCC(=O)Nc1cncc(-c2cnc3[nH]nc(-c4cc5c(-c6ccccc6F)ccnc5[nH]4)c3c2)c1` [Compound 75, N-(5-(3-(4-(2-Fluorophenyl)-1H-pyrrolo[2,3-b]pyridin-2-yl)-1H-pyrazolo [3,4-b]pyridin-5-yl)pyridin-3-yl)pentanamide], in experiment [1], the inhibition at 10 µM is 2.1% and the EC50 is > 10 µM. Besides, in experiment [2], the EC50 is > 10 µM and the inhibition at 10 µM was found to be 23.6%. Further, in experiment [3], the EC50 was 30 nM and the Emax came to 82%.
For `CN(C)CCNc1cc(F)cc(-c2ccnc3[nH]c(-c4n[nH]c5ncc(-c6cncc(NC(=O)C(C)(C)C)c6)cc45)cc23)c1` [Compound 456, N-(5-(3-(4-(3-((2-(Dimethylamino)ethyl)amino)-5-fluorophenyl)-1H-pyrrolo [2,3-b]pyridin-2-yl)-1H-pyrazolo[3,4-b]pyridin-5-yl)pyridin-3-yl)pivalamide], the inhibition at 10 µM worked out at 42.4% in experiment [1] and 0% in experiment [2]. The EC50 in experiment [1] and in experiment [2] was > 10 µM in each case.
Turning to `CN(C)CCNc1cc(F)cc(-c2ccnc3[nH]c(-c4n[nH]c5ncc(-c6cncc(NC(=O)C7CCC7)c6)cc45)cc23)c1` [Compound 469, N-(5-(3-(4-(3-((2-(Dimethylamino)ethyl)amino)-5-fluorophenyl)-1H-pyrrolo [2,3-b]pyridin-2-yl)-1H-pyrazolo[3,4-b]pyridin-5-yl)pyridin-3-yl)cyclobutanecarboxamide], in experiment [1], the inhibition at 10 µM was determined as 47.5% and the EC50 was > 10 µM. In experiment [2], the EC50 is > 10 µM and the inhibition at 10 µM came to 0%.
As to `Fc1cccc(-c2ccnc3[nH]c(-c4n[nH]c5ncc(-c6cncc(OCc7ccccc7)c6)cc45)cc23)c1` [Compound 518, 5-(5-(Benzyloxy)pyridin-3-yl)-3-(4-(3-fluorophenyl)-1H-pyrrolo[2,3-b]pyridin-2-yl)-1H-pyrazolo[3,4-b]pyridine], the inhibition at 10 µM in experiment [1] amounted to 0%; in experiment [2], 16.3%. The EC50 in experiment [1] and in experiment [2] was > 10 µM throughout.
`Oc1cncc(-c2cnc3[nH]nc(-c4cc5c(-c6ccc(F)cc6)ccnc5[nH]4)c3c2)c1` [Compound 533, 5-(3-(4-(4-Fluorophenyl)-1H-pyrrolo[2,3-b]pyridin-2-yl)-1H-pyrazolo[3,4-b]pyridin-5-yl)pyridin-3-ol]: in experiment [1], the inhibition at 10 µM is 3.4% and the EC50 was > 10 µM. Moreover, in experiment [2], the EC50 is > 10 µM and the inhibition at 10 µM is 19%.
With `CN(C)CCOc1cncc(-c2cnc3[nH]nc(-c4cc5c(-c6cccnc6)ccnc5[nH]4)c3c2)c1` [Compound 563, N,N-dimethyl-2-((5-(3-(4-(pyridin-3-yl)-1H-pyrrolo[2,3-b]pyridin-2-yl)-1H-pyrazolo[3,4-b]pyridin-5-yl)pyridin-3-yl)oxy)ethan-1-amine], the results for the inhibition at 10 µM in experiment [1] and in experiment [2] were 20.6% and 5.3%, respectively. Besides, the EC50 in experiment [1] and in experiment [2] was > 10 µM in each case.
In the case of `c1csc(-c2ccnc3[nH]c(-c4n[nH]c5ncc(-c6cncc(OC7CCCCC7)c6)cc45)cc23)c1` [Compound 703, 5-(5-(Cyclohexyloxy)pyridin-3-yl)-3-(4-(thiophen-2-yl)-1H-pyrrolo[2,3-b]pyridin-2-yl)-1H-pyrazolo[3,4-b]pyridine], in experiment [1], the inhibition at 10 µM was 38.6% and the EC50 was > 10 µM. In addition, in experiment [2], the EC50 is > 10 µM and the inhibition at 10 µM is 23.3%.
In turn, `Cc1ncc(-c2cnc3[nH]nc(-c4cc5c(-c6cc(F)cc(NCCN(C)C)c6)ccnc5[nH]4)c3c2)n1C` [Compound 781, N^1-(3-(2-(5-(1,2-Dimethyl-1H-imidazol-5-yl)-1H-pyrazolo[3,4-b]pyridin-3-yl)-1H-pyrrolo[2,3-b]pyridin-4-yl)-5-fluorophenyl)-N^2,N^2-dimethylethane-1,2-diamine] yielded an EC50 in experiment [1] of 4.46 µM. In experiment [2], the EC50 was > 10 µM and the inhibition at 10 µM was 0%.
